The record followed here is patent US20020146679A1, “Method for creating endothelial cell dysfunction in cell culture” (priority 2001, published 2002).

Entries after “also recorded” stand apart in the source; their conditions may differ.

Experiment [1] relates to EA hy926 endothelial cells. Nature of the experiment: Tube formation assay on MATRIGEL (in vitro angiogenesis). It counts as cell-based, human. The following applies: TNFα exposure greater than 3 days (up to 6 days) in 5% FBS, then plated on matrigel. Here is the method: According to an aspect of the invention, EA hy926 (EA) cells are initially grown in standard endothelial cell culture medium consisting of MCDB 131 (Clonetics Corp.) supplemented with 10 fetal bovine serum (FBS) (Hyclone laboratories), 100 U/mL penicillin/streptomycin, 50 μg/mL gentamicin, and other endothelial growth supplements (EGM bullet kit, Clonetics Corp.). […] Cells were grown in these conditions for 6 to 7 days. EA cells are then dispersed by trypsinization, counted, suspended in EGM media containing […], and plated onto the surface of a MATRIGEL® basement membrane protein matrix (0.5 mL/well, dispensed into 24-well tissue culture plates according to the manufacturer's instructions) at a density of 5×10^5 cells per well (24 well plate). The cells were then placed in a CO2 incubator at 37° C. and observed over a 16- to 24-hour period for cell differentiation into tube-like structures resembling capillaries. […]
EBM medium and its supplement were purchased from Clonetics. […] EA cells were then dispersed by trypsinization, counted, suspended in EGM media containing 10% FBS, and plated onto the surface of a MATRIGEL® basement membrane matrix (0.5 mL/well, dispensed into 24-well tissue culture plates according to the manufacturer's instructions) at a density of 5×10^5 cells per well (24-well plate). […]

The subject of experiment [2] is EA hy926 cells. The experiment is described as follows: Western blotting analysis of endothelial marker proteins. The note with it: 6-day (chronic) TNFα treatment, 5% FBS. It counts as cell-based, human. Here is the method: The whole cell lysates were generated by suspending cell pellets with protein lysis buffer containing 10 mM Tris.CI (pH 7.6), 1 mM EDTA (pH 8.0), 100 mM NaCI, 1 μg/mL aprotinin, and 100 μg/mL phenylmethylsulfonyl fluoride. The lysates were sonicated for 15 seconds at output control level 4 with Sonifier 450 model manufactured by VWR Scientific products. Fifty microgram lysates protein for each sample was electrophoretically separated in 8% to 16% Tris-Glycine Gel and transferred to a nitrocellulose membrane. The proteins on the membrane were stained with PONCEAS solution to check if the proteins loading and transfer were even. The membranes were separately incubated with 5% dry milk Phosphate-buffered saline (PBS) at room temperature for 2 hours and followed by overnight incubation at 4° C. with fresh 5% dry milk PBS containing primary antibodies at 1:2000 dilution. The peroxidase conjugated secondary antibodies was diluted at 1:4000 dilution with 5% PBS buffer. The incubation with secondary antibody was carried out at room temperature for 1 hour. The membranes were then subject to staining with ECL solution and exposure to films.

As for TNFα, the serum-stimulated tube formation entry in experiment [1] is on record as “cells no longer form tubes; also recorded: fail to form tubes”. In experiment [2], the CD31 protein expression result is “increased”, the PAI-1 protein expression entry was “increased”, the VCAM-1 protein expression result is given as “increased” and the caveolin-1 protein expression result is on record as “increased”. Also, the ecNOS protein expression entry in experiment [2] is reported as “markedly decreased”.
